The assay relates to Nrf2 transcriptional activity (pARE-Luc reporter) in HepG2 cells. Kind of assay: In vitro Nrf2 transcriptional activity measurement by ARE-dependent reporter assay in HepG2 cell. The settings on record: Homo sapiens; HepG2 cells transfected with pARE-Luc, 4 hours at 37° C.; luciferase activity of Example 1-54 or Example 17-23 at 3.75 μM defined as 100%. In kind it is cell-based, human. The method in brief: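 HepG2 cells transfected with pGL4.37 (pARE-Luc), replated onto compound and incubated 4 h at 37° C; luciferase read by Bright-Glo luminescence. Response normalized to 100% set by a reference compound at 3.75 μM; EC50 from dose-response curve.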
Background: In a reporter assay the amount or activity of a reporter protein is the signal.
Broadly, the EC50 is the midpoint of the concentration-response curve. The low end stands for a more potent agent, the high end for a less potent agent. Regarding `Cn1ncc2cc(Cl)c(C(=O)N3COc4c(cccc4-c4cc(N5CCOCC5)c(C(=O)O)cc4F)C3)cc21` [Compound 13-15, 4-[3-(5-Chloro-1-methylindazole-6-carbonyl)-2,4-dihydro-1,3-benzoxazin-8-yl]-5-fluoro-2-morpholin-4-ylbenzoic acid], the midpoint of the response, the EC50, lay at 10 nM. In other words, the double-digit nanomolar range. To `COc1cc(Cl)c(C(=O)N2COc3c(cccc3-c3cc(N4CCOCC4)c(C(=O)O)cc3F)C2)cc1OC` [Compound 13-17, 4-[3-(2-Chloro-4,5-dimethoxybenzoyl)-2,4-dihydro-1,3-benzoxazin-8-yl]-5-fluoro-2-morpholin-4-ylbenzoic acid] belongs 5.9 nM; to `Cn1cc(-c2cc(Cl)c(C(=O)N3CSc4c(cccc4-c4cc(N5CCOCC5)c(C(=O)O)cc4F)C3)c(Cl)c2)cn1` [Compound 13-18, 4-[3-[2,6-Dichloro-4-(1-methylpyrazol-4-yl)benzoyl]-2,4-dihydro-1,3-benzothiazin-8-yl]-5-fluoro-2-morpholin-4-ylbenzoic acid], 21 nM; to `Cn1cc(-c2cc(Cl)c(C(=O)N3COc4c(cccc4-c4cc(N5CCOCC5)c(C(=O)O)cc4F)C3)c(Cl)c2)cn1` [Compound 13-19, 4-[3-[2,6-Dichloro-4-(1-methylpyrazol-4-yl)benzoyl]-2,4-dihydro-1,3-benzoxazin-8-yl]-5-fluoro-2-morpholin-4-ylbenzoic acid], 1.6 nM. The figure for `Cc1cc(-c2cccc3c2OCN(C(=O)c2c(Cl)cc(-c4cnn(C)c4)cc2Cl)C3)cc(N2CCOCC2)c1C(=O)O` [Compound 13-20, 4-[3-[2,6-Dichloro-4-(1-methylpyrazol-4-yl)benzoyl]-2,4-dihydro-1,3-benzoxazin-8-yl]-2-methyl-6-morpholin-4-ylbenzoic acid] is 7.2 nM; for `Cn1cc(-c2cc(Cl)c(C(=O)N3COc4c(cccc4-c4cc(N5CC6COCC6C5)c(C(=O)O)cc4F)C3)c(Cl)c2)cn1` (stereo not shown) [Compound 14-2, 2-(1,3,3a,4,6,6a-Hexahydrofuro[3,4-c]pyrrol-5-yl)-4-[3-[2,6-dichloro-4-(1-methylpyrazol-4-yl)benzoyl]-2,4-dihydro-1,3-benzoxazin-8-yl]-5-fluorobenzoic acid] it is 6.5 nM; for `Cn1cc(-c2cc(Cl)c(C(=O)N3COc4c(cccc4-c4ccc(C(=O)O)c(N5CCC(F)(F)CC5)c4)C3)c(Cl)c2)cn1` [Compound 14-3, 4-[3-[2,6-Dichloro-4-(1-methylpyrazol-4-yl)benzoyl]-2,4-dihydro-1,3-benzoxazin-8-yl]-2-(4,4-difluoropiperidin-1-yl)benzoic acid] it is 12 nM. The figure for `Cn1cc(-c2cc(Cl)c(C(=O)N3Cc4cccc(-c5ccc(C(=O)O)c(N6CCOCC6)c5)c4C(=O)N3)c(Cl)c2)cn1` [Compound 14-4, 4-[2-[2,6-Dichloro-4-(1-methylpyrazol-4-yl)benzoyl]-4-oxo-1,3-dihydrophthalazin-5-yl]-2-morpholin-4-ylbenzoic acid] is 3.8 nM; for `Cn1cc(-c2cc(Cl)c(C(=O)N3CNc4c(cccc4-c4ccc(C(=O)O)c(N5CCOCC5)c4)C3)c(Cl)c2)cn1` [Compound 14-5, 4-[3-[2,6-Dichloro-4-(1-methylpyrazol-4-yl)benzoyl]-2,4-dihydro-1H-quinazolin-8-yl]-2-morpholin-4-ylbenzoic acid] it is 3.1 nM. As to `Cn1cc(-c2cc(Cl)c(C(=O)N3Cc4cccc(-c5ccc(C(=O)O)c(N6CCOCC6)c5)c4NC3=O)c(Cl)c2)cn1` [Compound 14-6, 4-[3-[2,6-Dichloro-4-(1-methylpyrazol-4-yl)benzoyl]-2-oxo-1,4-dihydroquinazolin-8-yl]-2-morpholin-4-ylbenzoic acid], the response was half-maximal at 20 nM (EC50). Against the preceding molecule, the EC50 is about 6.5-fold higher. Take `[2H]C1([2H])c2cccc(-c3ccc(C(=O)O)c(N4CCOCC4)c3)c2OCN1C(=O)c1c(Cl)cc(-c2cnn(C)c2)cc1Cl` [Compound 14-7, 4-[4,4-Dideuterio-3-[2,6-dichloro-4-(1-methylpyrazol-4-yl)benzoyl]-2H-1,3-benzoxazin-8-yl]-2-morpholin-4-ylbenzoic acid]: the EC50 is 2.5 nM. For `Cn1cc(-c2cc(Cl)c(C(=O)N3Cc4cccc(-c5ccc(C(=O)O)c(N6CCOCC6)c5)c4CO3)c(Cl)c2)cn1` [Compound 14-8, 4-[3-[2,6-Dichloro-4-(1-methylpyrazol-4-yl)benzoyl]-1,4-dihydro-2,3-benzoxazin-8-yl]-2-morpholin-4-ylbenzoic acid], it took 70 nM to reach a half-maximal effect (EC50). The molecule `COCCN1CCN(c2cc(Cl)c(C(=O)N3COc4c(cccc4-c4cc(N5C6CCC5COC6)c(C(=O)O)cc4F)C3)c(Cl)c2)CC1` [Compound 14-9, 4-[3-[2,6-Dichloro-4-[4-(2-methoxyethyl)piperazin-1-yl]benzoyl]-2,4-dihydro-1,3-benzoxazin-8-yl]-5-fluoro-2-(3-oxa-8-azabicyclo[3.2.1]octan-8-yl)benzoic acid] showed an EC50 of 3.7 nM. Regarding `CC(C)(O)Cn1cc(-c2cc(Cl)c(C(=O)N3COc4c(cccc4-c4ccc(C(=O)O)c(N5CCOCC5)c4)C3)c(Cl)c2)cn1` [Compound 15-1, 4-[3-[2,6-Dichloro-4-[1-(2-hydroxy-2-methylpropyl)pyrazol-4-yl]benzoyl]-2,4-dihydro-1,3-benzoxazin-8-yl]-2-morpholin-4-ylbenzoic acid], the EC50 is 4.9 nM. This EC50 and that of the molecule before are within 1.5-fold of each other. The figure for `C[C@H](O)Cn1cc(-c2cc(Cl)c(C(=O)N3COc4c(cccc4-c4ccc(C(=O)O)c(N5CCOCC5)c4)C3)c(Cl)c2)cn1` [Compound 15-2, 4-[3-[2,6-Dichloro-4-[1-[(2S)-2-hydroxypropyl]pyrazol-4-yl]benzoyl]-2,4-dihydro-1,3-benzoxazin-8-yl]-2-morpholin-4-ylbenzoic acid] is 21 nM; for `COC[C@H](O)Cn1cc(-c2cc(Cl)c(C(=O)N3COc4c(cccc4-c4cc(N5CCOCC5)c(C(=O)O)cc4F)C3)c(Cl)c2)cn1` [Compound 15-3, 4-[3-[2,6-Dichloro-4-[1-[(2R)-2-hydroxy-3-methoxypropyl]pyrazol-4-yl]benzoyl]-2,4-dihydro-1,3-benzoxazin-8-yl]-5-fluoro-2-morpholin-4-ylbenzoic acid] it is 1.5 nM.

`COC[C@H](O)Cn1cc(-c2cc(Cl)c(C(=O)N3COc4c(cccc4-c4ccc(C(=O)O)c(N5CCOCC5)c4)C3)c(Cl)c2)cn1` [Compound 15-4, 4-[3-[2,6-Dichloro-4-[1-[(2R)-2-hydroxy-3-methoxypropyl]pyrazol-4-yl]benzoyl]-2,4-dihydro-1,3-benzoxazin-8-yl]-2-morpholin-4-ylbenzoic acid] displayed a half-maximal effective concentration (EC50) of 6.8 nM.

`CC1(O)CC2(CN(c3cc(Cl)c(C(=O)N4COc5c(cccc5-c5cc(N6C7CCC6COC7)c(C(=O)O)cc5F)C4)c(Cl)c3)C2)C1` [Compound 16-1, 4-[3-[2,6-Dichloro-4-(6-hydroxy-6-methyl-2-azaspiro[3.3]heptan-2-yl)benzoyl]-2,4-dihydro-1,3-benzoxazin-8-yl]-5-fluoro-2-(3-oxa-8-azabicyclo[3.2.1]octan-8-yl)benzoic acid] returned an EC50 of 13 nM. Against the preceding molecule, the EC50 is about 1.9-fold higher. `COC1(C)CC2(CN(c3cc(Cl)c(C(=O)N4COc5c(cccc5-c5cc(N6C7CCC6COC7)c(C(=O)O)cc5F)C4)c(Cl)c3)C2)C1` [Compound 16-2, 4-[3-[2,6-Dichloro-4-(6-methoxy-6-methyl-2-azaspiro[3.3]heptan-2-yl)benzoyl]-2,4-dihydro-1,3-benzoxazin-8-yl]-5-fluoro-2-(3-oxa-8-azabicyclo[3.2.1]octan-8-yl)benzoic acid]: the half-maximal effective concentration (EC50) was 1.5 nM. This EC50 lies about 8.7-fold lower than the previous one. To `C[C@@H]1CN(C)CCN1c1cc(Cl)c(C(=O)N2COc3c(cccc3-c3cc(N4C5CCC4COC5)c(-c4n[nH]c(=O)o4)cc3F)C2)c(Cl)c1` [Compound 16-3, 5-[4-[3-[2,6-Dichloro-4-[(2R)-2,4-dimethylpiperazin-1-yl]benzoyl]-2,4-dihydro-1,3-benzoxazin-8-yl]-5-fluoro-2-(3-oxa-8-azabicyclo[3.2.1]octan-8-yl)phenyl]-3H-1,3,4-oxadiazol-2-one] belongs 17 nM; to `C[C@@H]1CN(C)CCN1c1cc(Cl)c(C(=O)N2COc3c(cccc3-c3cc(N4C5CCC4COC5)c(-c4nnn[nH]4)cc3F)C2)c(Cl)c1` [Compound 16-4, [2,6-Dichloro-4-[(2R)-2,4-dimethylpiperazin-1-yl]phenyl]-[8-[2-fluoro-5-(3-oxa-8-azabicyclo[3.2.1]octan-8-yl)-4-(1H-tetrazol-5-yl)phenyl]-2,4-dihydro-1,3-benzoxazin-3-yl]methanone], 110 nM.

On to `Cn1cc(-c2cc(Cl)c(C(=O)N3COc4c(cccc4-c4ccc(-c5nnn[nH]5)c(N5CCOCC5)c4)C3)c(Cl)c2)cn1` [Compound 16-5, [2,6-Dichloro-4-(1-methylpyrazol-4-yl)phenyl]-[8-[3-morpholin-4-yl-4-(1H-tetrazol-5-yl)phenyl]-2,4-dihydro-1,3-benzoxazin-3-yl]methanone], for which the 50% effective concentration (EC50) turned out to be 200 nM. Compared with the last molecule, the EC50 is about 1.8-fold higher. `COC1CN(c2cc(Cl)c(C(=O)N3COc4c(cccc4-c4cc(N5C6CCC5COC6)c(C(=O)NS(C)(=O)=O)cc4F)C3)c(Cl)c2)C1` [Compound 16-6, 4-[3-[2,6-Dichloro-4-(3-methoxyazetidin-1-yl)benzoyl]-2,4-dihydro-1,3-benzoxazin-8-yl]-5-fluoro-N-methylsulfonyl-2-(3-oxa-8-azabicyclo[3.2.1]octan-8-yl)benzamide] returned a 50% effective concentration (EC50) of 170 nM. This EC50 and that of the molecule before are within 1.5-fold of each other. `O=C(O)c1cc(F)c(-c2cccc3c2OCN(C(=O)c2c(Cl)cc(N4CC5(C4)CC(F)(F)C5)cc2Cl)C3)cc1N1C2CCC1COC2` [Compound 16-7, 4-[3-[2,6-Dichloro-4-(6,6-difluoro-2-azaspiro[3.3]heptan-2-yl)benzoyl]-2,4-dihydro-1,3-benzoxazin-8-yl]-5-fluoro-2-(3-oxa-8-azabicyclo[3.2.1]octan-8-yl)benzoic acid] returned a concentration giving a half-maximal response (EC50) of 1.4 nM. To `O=C(O)c1cc(F)c(-c2cccc3c2OCN(C(=O)c2c(Cl)cc(N4CC5(CC(F)C5)C4)cc2Cl)C3)cc1N1C2CCC1COC2` [Compound 16-8, 4-[3-[2,6-Dichloro-4-(6-fluoro-2-azaspiro[3.3]heptan-2-yl)benzoyl]-2,4-dihydro-1,3-benzoxazin-8-yl]-5-fluoro-2-(3-oxa-8-azabicyclo[3.2.1]octan-8-yl)benzoic acid] belongs 3.9 nM.
